{"source": "patent US10295463B2", "about": "“Device and method for investigating one or a plurality of phase objects” (Ludwig-Maximilians-Universität München, priority 2013, dated 2019)", "key": {"[1]": {"test_system": "Dictyostelium discoideum cell", "experiment": "Cell motility by Fourier analysis of the temporal diffraction signal when an active substance is added", "assay_type": "cell-based", "conditions": "active substance added to the medium in the sample chamber at time t=0; FIG. 14", "text": "In FIG. 11b, a three-dimensional view is shown top left, a plan view is shown top right, and a cross section of the sample holder G is shown at the bottom. […] A surrounding medium or an active substance can be introduced into the receptacle, which is formed by the sample chamber. A sensor with a grid, which is arranged on a substrate, is located within the sample chamber. […] Furthermore, biological cells are located on the grid, where the reaction of the cells to the active substances is to be investigated. In particular, in the illustrated case is to be investigated how the motility of the cells changes due to the addition of the active substance.\nIn this case, the time axis runs from top to bottom and the frequency axis runs from left to right. At time t=0, the active substance, Latruncalin A, is added to the medium located in the sample chamber."}, "[2]": {"test_system": "bacteria", "experiment": "Bacteria population growth and activity from intensity of a diffraction maximum, treatment with antibiotic", "assay_type": "cell-based", "text": "In FIG. 16, it can be seen that the intensity of the diffraction maximum decreases with time for the bacteria sample. This decrease is due to an increasing division of the bacteria, i.e. a continuous increase in the bacteria population or, in other words, an increase in the number of phase objects which increasingly disturb the constructive interference in the diffraction maximum and thereby lead to a decrease in the intensity. In FIG. 16, it can be further observed that with increasing time, the intensity increasingly fluctuates, which can be attributed to the activity of the cells.\nFurther shown in FIG. 17 is an exemplary enlarged section of the course of the measurement signals, in which the fluctuations of the signal can be clearly seen. By fitting a growth curve, which includes the division rate as a parameter, the division rate of the bacteria can be discerned from the signal.\nIt can be seen from FIG. 18 that the standard deviation increases with time. This standard deviation represents fluctuations of the signals on a short time scale which in turn are a measure for the activity of the bacteria, which will be explained in more detail with reference to FIG. 19 below."}}}
{"compound": "C/C1=C/C(=O)O[C@@H]2C[C@@H](CC[C@H](C)/C=C\\C=C\\CC1)O[C@@](O)([C@@H]1CSC(=O)N1)C2", "note": "[Latruncalin A, Latrunculin A]", "values": [{"measurement": "temporal course of the Fourier coefficients", "setting": "[1]", "value": "a rise in the Fourier coefficients, which subside again with increasing exposure time"}]}
{"compound": "CC1(C)S[C@@H]2[C@H](NC(=O)[C@H](N)c3ccccc3)C(=O)N2[C@H]1C(=O)O", "note": "[AMP]", "values": [{"measurement": "normalized intensity of the diffraction maximum as a function of time", "setting": "[2]; 4 mg/l applied at 60 min., FIG. 19 row 3 column c", "value": "the intensity starts increasing again after 90 min."}, {"measurement": "mean value of the standard deviation of the intensity as a function of time", "setting": "[2]; 4 mg/l applied at 60 min., FIG. 19 row 3 column d", "value": "a rapid decrease in the standard deviation, which is even more pronounced than in the second row"}, {"measurement": "normalized intensity of the diffraction maximum as a function of time", "setting": "[2]; double dose of 2 mg/1, FIG. 19 row 2 column c", "value": "the decrease in the normalized intensity flattens at 120 min."}, {"measurement": "mean value of the standard deviation of the intensity as a function of time", "setting": "[2]; double dose of 2 mg/1, FIG. 19 row 2 column d", "value": "at 120 min. the standard deviation decreases significantly, which is again indicative of cell death"}, {"measurement": "normalized intensity of the diffraction maximum as a function of time", "setting": "[2]; treated after 60 min. of growth, concentration 1 mg/l, FIG. 19 row 1 column c", "value": "the normalized intensity decreases, which indicates a further growth of the bacteria population"}, {"measurement": "mean value of the standard deviation of the intensity as a function of time", "setting": "[2]; treated after 60 min. of growth, concentration 1 mg/l, FIG. 19 row 1 column d", "value": "the standard deviation reaches a plateau at 120 min. and decreases thereafter, which suggests that the bacteria cells die"}]}
